From patent EP1147080B1 (Wyeth Holdings Corporation, priority 1999, dated 2000)
Like-named read-outs stand apart in the source and are kept apart here.

Assays:
[1] = target: TNF-α converting enzyme (TACE) (Homo sapiens, UniProt P78536); experiment: Test procedure for measuring TACE inhibition (fluorescent peptidyl substrate); assay type: biochemical
[2] = tested on: THP-1 cells; experiment: Human monocytic THP-1 cell differentiation assay for soluble proteins (THP soluble protein assay), LPS-stimulated, TNF-α ELISA; assay type: cell-based; details: for inhibition at 3 µM: Homo sapiens, THP-1; at 3 uM; percent change from vehicle positive control; read-out: TNFalpha at 3 uM) THP (percent change); for THP (% inhibition): Table 1, concentration not given
Excerpt: Mitogenic stimulation of THP-1 cells cause differentiation into macrophage like cells with concomitant secretion of tumor necrosis factor (TNF-a) and TNF receptor (TNF-R p75/80 and TNF-R p55/60) and Interleukin-8 (IL-8), among other proteins. In addition, non-stimulated THP-1 cells shed both the p75/80 and the p55/60 receptors over time. The release of membrane bound TNF-a and possibly TNF-R p75/80 and TNF-R p55/60, but not IL-8, is mediated by an enzyme called TNF-α converting enzyme or TACE.
THP-1 cells (from ATCC) are a human monocytic cell line which were obtained from the peripheral blood of a person with acute monocytic leukemia. They can be grown in culture and differentiated into macrophage like cells by stimulation with mitogens.
Each vial of cells are cultured for about two weeks prior to being used for an assay and then are used for only 4 to 6 weeks to screen compounds.
Cell exposure to DMSO was limited to 0.1 % final concentration. […] Compounds can be evaluated for their effect on basal (non-stimulated) shedding of the receptors by replacing the LPS with […] of THP-1 media. Plates are placed into an incubator set at 5% CO2 and at 37°C. After 4 hours of incubation, […] of tissue culture supernatant (TCS) is removed for use in an TNF-α ELISA. Following 24 hours of incubation, […] of TCS is removed and used for analysis in TNF-R p75/80, TNF-R p55/60 and IL-8 ELISAs.
In addition, at the 24 hours timepoint, and the cells for each treatment group are collected by resuspension in 500 µl/well of THP-1 media and transferred into a FACS tube. […] The samples are run on a Becton Dickinson FaxCaliber FLOW cytometry machine and the amount of dye taken up by each cell is measured in the high red wavelength (FL3). Only cells with compromised membranes (dead or dying) can take up PI. The percent of live cells is calculated by the number of cells not stained with PI, divided by the total number of cells in the sample. The viability values calculated for the drug treated groups were compared to the viability value calculated for the vehicle treated mitogen stimulated group ("vehicle positive control") to determine the "percent change from control". This "percent change from control" value is an indicator of drug toxicity.
The quantity of soluble TNF-α, TNF-R p75/80 and TNF-R p55/60 and IL-8 in the TCS of the THP-1 cell cultures are obtained with commercially available ELISAs from R&D Systems, by extrapolation from a standard curve generated with kit standards. The number of cells that either take up or exclude PI are measured by the FLOW cytometry machine and visualized by histograms using commercially available Cytologic software for each treatment group including all controls.
Biological variability in the magnitude of the response of THP-1 cell cultures requires that experiments be compared on the basis of percent change from "vehicle positive control" for each drug concentration. Percent change in each soluble protein evaluated from the "vehicle positive control" was calculated for each compound concentration with the following formula: % Change =(pg/ml (compound) - pg/ml (veh pos control))/(pg/ml (veh pos control) - pg/ml (veh neg control))x 100 [formula]
For the soluble protein (TNF-a, p75/80, p55/60, IL-8) studies under stimulated conditions, the mean pg/ml of duplicate wells were determined and the results expressed as percent change from "vehicle positive control". For the soluble protein (p75/80 and p55/60 receptors) studies under non-stimulated conditions, the mean pg/ml of duplicate wells were determined and the results expressed as percent change from […] utilizing the following formula: % Change =(pg/ml (compound neg control) - pg/ml (veh neg control))/(pg/ml (veh neg control))X 100 [formula]
IC50 values for each compound are calculated by non-linear regression analysis using customized software utilizing the JUMP statistical package.

[3] = target: MMP-9 (Homo sapiens, UniProt P14780); experiment: MMP-9 inhibition (thiopeptide or fluorescent peptide substrate); details: for inhibition at 10 µM: read-out: MMP9
Procedure: (§1) The enzyme activity is measured by the rate of the color increase. The thiopeptide substrate is made up fresh as a 20 mM stock in 100% DMSO and the DTNB is dissolved in 100% DMSO as a 100 mM stock and stored in the dark at room temperature. Both the substrate and DTNB are diluted together to 1 mM with substrate buffer (50 mM HEPES pH 7.5, 5 mM CaCl2) before use. The stock of enzyme is diluted with buffer (50 mM HEPES, pH 7.5, 5 mM CaCl2, 0.02% Brij) to the desired final concentration.
(§2) Alternatively, a fluorescent peptide substrate is used. In this test procedure, the peptide substrate contains a fluorescent group and a quenching group. Upon cleavage of the substrate by an MMP, the fluorescence that is generated is quantitated on the fluorescence plate reader. The assay is run in HCBC assay buffer (50mM HEPES, pH 7.0, 5 mM Ca^+2, 0.02% Brij, 0.5% Cysteine), with human recombinant MMP-1, MMP-9, or MMP-13. The substrate is dissolved in methanol and stored frozen in 1 mM aliquots. For the assay, substrate and enzymes are diluted in HCBC buffer to the desired concentrations. Compounds are added to the 96 well plate containing enzyme and the reaction is started by the addition of substrate.
(§3) For either the thiopeptide or fluorescent peptide test procedures, the slope of the line is calculated and represents the reaction rate. […] The mean (x±sem) of the control rate is calculated and compared for statistical significance (p<0.05) with drug-treated rates using Dunnett's multiple comparison test.

[4] = target: T1, MMP-1 (Homo sapiens, UniProt P03956); experiment: MMP-1 inhibition (thiopeptide or fluorescent peptide substrate); details: for inhibition at 10 µM: read-out: MMP1
T1 sequence (P03956 100-469): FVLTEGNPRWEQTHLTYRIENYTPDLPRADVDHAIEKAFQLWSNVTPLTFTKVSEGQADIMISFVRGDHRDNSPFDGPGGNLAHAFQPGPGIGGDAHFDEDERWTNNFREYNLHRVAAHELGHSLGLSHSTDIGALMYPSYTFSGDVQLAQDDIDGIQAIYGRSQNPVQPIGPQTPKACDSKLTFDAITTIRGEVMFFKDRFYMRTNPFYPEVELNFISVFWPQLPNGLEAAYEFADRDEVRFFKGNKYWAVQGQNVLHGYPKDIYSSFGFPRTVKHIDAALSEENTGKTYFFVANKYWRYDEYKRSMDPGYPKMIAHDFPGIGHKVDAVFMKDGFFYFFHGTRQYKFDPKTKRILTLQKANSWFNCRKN
Procedure: as §1, §2, §3

[5] = target: MMP-13 (Homo sapiens, UniProt P45452); experiment: MMP-13 inhibition (thiopeptide or fluorescent peptide substrate); assay type: biochemical; details: for inhibition at 10 µM / MMP13: % @ 10µM per footnote a
Excerpt: Alternatively, a fluorescent peptide substrate is used.

[6] = second table, IC50 (nM) per footnote a

MMP-9, sequence (P14780 94-707): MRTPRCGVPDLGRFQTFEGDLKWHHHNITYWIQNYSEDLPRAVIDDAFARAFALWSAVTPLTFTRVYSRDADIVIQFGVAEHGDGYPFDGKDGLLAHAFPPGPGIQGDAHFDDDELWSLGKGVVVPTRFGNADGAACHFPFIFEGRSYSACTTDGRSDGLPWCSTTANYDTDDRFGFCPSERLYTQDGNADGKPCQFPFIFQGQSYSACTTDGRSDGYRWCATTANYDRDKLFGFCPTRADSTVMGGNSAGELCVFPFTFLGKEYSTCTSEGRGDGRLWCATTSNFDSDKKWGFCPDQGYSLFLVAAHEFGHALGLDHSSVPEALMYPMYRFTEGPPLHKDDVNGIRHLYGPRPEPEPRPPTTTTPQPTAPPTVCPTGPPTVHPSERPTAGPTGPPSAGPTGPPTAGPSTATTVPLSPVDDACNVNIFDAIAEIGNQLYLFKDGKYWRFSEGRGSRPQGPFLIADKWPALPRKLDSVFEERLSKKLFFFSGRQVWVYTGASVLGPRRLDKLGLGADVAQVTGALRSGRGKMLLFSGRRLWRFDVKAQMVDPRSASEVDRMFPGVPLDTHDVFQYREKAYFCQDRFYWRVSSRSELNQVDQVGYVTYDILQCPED
TNF-α converting enzyme (TACE), sequence (P78536 215-824): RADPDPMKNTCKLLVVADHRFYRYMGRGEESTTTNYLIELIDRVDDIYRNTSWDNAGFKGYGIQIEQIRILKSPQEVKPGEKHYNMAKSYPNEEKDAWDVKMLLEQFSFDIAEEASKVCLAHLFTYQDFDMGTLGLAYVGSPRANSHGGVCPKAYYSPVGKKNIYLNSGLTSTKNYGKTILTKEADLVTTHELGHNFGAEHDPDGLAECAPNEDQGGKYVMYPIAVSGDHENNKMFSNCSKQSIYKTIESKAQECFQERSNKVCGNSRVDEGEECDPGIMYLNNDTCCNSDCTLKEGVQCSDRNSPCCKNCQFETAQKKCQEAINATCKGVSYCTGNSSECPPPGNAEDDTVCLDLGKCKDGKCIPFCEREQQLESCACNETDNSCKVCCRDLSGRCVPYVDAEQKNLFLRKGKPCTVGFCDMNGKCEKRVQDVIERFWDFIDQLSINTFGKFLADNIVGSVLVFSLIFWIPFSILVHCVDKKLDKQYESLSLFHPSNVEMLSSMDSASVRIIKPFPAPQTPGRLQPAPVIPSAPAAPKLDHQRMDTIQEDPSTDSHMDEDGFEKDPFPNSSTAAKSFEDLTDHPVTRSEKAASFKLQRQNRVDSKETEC

| IC50 [1, 6] [nM] | inhibition at 10 µM [4] [%] | inhibition at 10 µM ([5]; read-out: MMP13) [%] | SMILES | inhibition at 3 µM [2] [%] | also measured |
| --- | --- | --- | --- | --- | --- |
| 48.1 | 23.3 | 56.8 | CC#CCOc1ccc(S(=O)(=O)C(C(=O)NO)c2ccc(OC)cc2)cc1 (centres unmarked) [Example 79, 2-{[4-(2-butynyloxy)phenyl]sulfonyl}-N-hydroxy-2-(4-methoxyphenyl) acetamide] | – | inhibition at 10 µM [3]: 27.3% |
| – | 3 | 26.8 | CC#CCOc1ccc(SC(C(=O)NO)c2ccc(OC)cc2)cc1 (centres unmarked) [Example 76, 2-{[4-(2-butynyloxy)phenyl]sulfanyl}-N-hydroxy-2-(4-methoxyphenyl) acetamide] | 15 | inhibition at 10 µM [3]: 21.6% |
| 423 | 8 | 34 | CC#CCOc1ccc(S(=O)(=O)C(C(=O)NO)c2cccc3ccccc23)cc1 (centres unmarked) [Example 94, 2-{[4-(2-Butynyloxy)phenyl]sulfonyl}-N-hydroxy-2-(1-naphthyl)acetamide] | -11 | – |
| – | 9 | 26 | CC#CCOc1ccc(SC(C(=O)NO)c2ccc(F)cc2)cc1 (centres unmarked) [Example 95] | -7 | inhibition at 10 µM [3]: 5.7% |
| 60 | 24 | 51 | CC#CCOc1ccc([S+]([O-])[C@H](C(=O)NO)c2ccc(Br)cc2)cc1 (single isomer, unassigned) [Example 86] | -2 | – |
| 65 | 0 | 56 | CC#CCOc1ccc(S(=O)(=O)C(C(=O)NO)c2cccc(Br)c2)cc1 (centres unmarked) [Example 106, 2-{[4-(2-Butynyloxy)phenyl]sulfonyl}-2-(3-bromophenyl)-N-hydroxyacetamide] | -5 | – |

The next lines start with the molecule.

| SMILES | IC50 [1, 6] [nM] | inhibition at 10 µM [4] [%] | inhibition at 10 µM ([5]; read-out: MMP13) [%] | inhibition at 3 µM [2] [%] | also measured |
| --- | --- | --- | --- | --- | --- |
| CC#CCOc1ccc(S(=O)(=O)C(C(=O)NO)C(C)C)cc1 (centres unmarked) [Example 110, 2-{[4-{2-butynyloxy)phenyl]sulfonyl}-2-isopropyl-N-hydroxyacetamide] | 17 | 39.6 | – | 25 | IC50 [3]: 5.14 µM; IC50 ([5]; IC50, read-out: MMP13): 1.26 µM |
| CC#CCOc1ccc(SC(C(=O)NO)C(C)C)cc1 (centres unmarked) [Example 107, 2-{[4-(2-Butynyloxy)phenyl]sulfanyl}-2-isopropyl-N-hydroxyacetamide] | 157 | 2.8 | 59.4 | -13 | inhibition at 10 µM [3]: 56.8% |
| CC#CCOc1ccc(S(=O)(=O)C(C)(Cc2ccc(OCCN3CCCCC3)cc2)C(=O)NO)cc1 (centres unmarked) [Example 1, 2-(4-But-2-ynyloxy-benzenesulfonyl)-N-hydroxy-2-methyl-3-[4-(2-piperidin-1-yl-ethoxy)-phenyl]-propionamide] | – | – | – | – | IC50 ([1]; Table 1): 191 nM; THP (% inhibition) [2]: 25%; IC50 [3]: 0.18 µM; IC50 [4]: 2 µM; IC50 ([5]; Table 1, read-out: MMP13 IC50): 0.2 µM |
| CC#CCOc1ccc([S+]([O-])[C@@H](C(=O)NO)c2ccc(OC)cc2)cc1 (single isomer, unassigned) [Example 77] | – | – | – | – | MMP9 [3]: 45.40%; MMP1 ([4]; % @ 10µM per footnote a): 17.50% |
| CC#CCOc1ccc(S(=O)(=O)C(C(=O)NO)C2CCCCC2)cc1 (centres unmarked) [Example 75, 2-{[4-(2-butynyloxy)phenyl]sulfonyl}-2-cyclohexyl-N-hydroxyacetamide] | – | 34.6 | – | 39 | inhibition at 10 µM [3]: 68.2%; IC50 ([5]; IC50, read-out: MMP13): 0.708 µM |
| CC#CCOc1ccc(S(=O)(=O)C(C)(Cc2cccnc2)C(=O)NO)cc1 (centres unmarked) [Example 3, 2-(4-But-2-ynyloxy-phenylsulfonyl)-N-hydroxy-2-methyl-3-pyridin-3-ylpropionamide] | – | – | – | – | IC50 ([1]; Table 1): 15.7 nM; THP (% inhibition) [2]: 14%; IC50 [3]: 0.142 µM; IC50 [4]: 1.4 µM; IC50 ([5]; Table 1, read-out: MMP13 IC50): 0.069 µM |
| CC#CCOc1ccc([S+]([O-])[C@H](C(=O)NO)c2ccc(OC)cc2)cc1 (single isomer, unassigned) [Example 78] | – | 5.9 | 54.5 | 13 | inhibition at 10 µM [3]: 32.7% |
| CC#CCOc1ccc([S+]([O-])C(C(=O)NO)c2ccccc2)cc1 (single isomer, unassigned) [Example 113, S-2-{[4-(2-butynyloxy)phenyl]sulfinyl}-2-phenyl-N-hydroxyacetamide] | – | – | – | – | MMP9 [3]: 25.70%; MMP1 [4]: 6.20%; MMP13 [5]: 59% |
| CC#CCOc1ccc([S+]([O-])[C@@H](C(=O)NO)c2cccc(Br)c2)cc1 (single isomer, unassigned) [Example 104] | 63 | 6 | 54 | 4 | – |
| CC#CCOc1ccc([S+]([O-])C(C(=O)NO)c2cccc3ccccc23)cc1 (centres unmarked) [Example 93, 2-{[4-(2-Butynyloxy)phenyl]sulfinyl}-N-hydroxy-2-(1-naphthyl)acetamide] | – | 7 | 17 | -1 | inhibition at 10 µM ([1]; % @ 10µM per footnote a, read-out: TACE IC50): 15.6% |
| CC#CCOc1ccc(SC(C(=O)NO)c2ccccc2OC)cc1 (centres unmarked) [Example 98, 2-(2-methoxyphenyl)-2-{[4-(2-butynyloxy)phenyl]sulfanyl}-N-hydroxyacetamide] | 464 | 23 | 59 | 1 | – |
| CC#CCOc1ccc(S(=O)(=O)C(C(=O)NO)C2CCNCC2)cc1 (centres unmarked) [Example 118, 2-{[4-(2-butynyloxy)phenyl]sulfonyl}-N-hydroxy-2-(4-piperidinyl) acetamide] | 299 | 23.8 | 69.5 | 24 | – |
| CC#CCOc1ccc([S+]([O-])C(C(=O)NO)c2ccc(Cl)cc2)cc1 (mixture of isomers) [Example 81, 2-{[4-(2-butynyloxy)phenyl]sulfinyl}-2-(4-chlorophenyl) N-hydroxyacetamide] | 223 | 30.5 | – | 6 | inhibition at 1 µM ([5]; % at 1 um (specified in cell), read-out: MMP13): 21.6% |
| CC#CCOc1ccc(S(=O)(=O)C(CCc2ccc(OCCN3CCCCC3)cc2)C(=O)NO)cc1 (centres unmarked) [Example 71] | – | – | – | 11 | IC50 [3]: 2.51 µM; IC50 [4]: 10 µM; IC50 ([5]; IC50, read-out: MMP13): 0.894 µM |
| CC#CCOc1ccc([S+]([O-])C(C(=O)NO)C(C)C)cc1 (centres unmarked) [Example 108, R-2-{[4-(2-butynylaxy)phenyl]sulfinyl}-2-isopropyl-N-hydroxyacetamide] | – | – | – | – | IC50 [3]: 0.399 µM; IC50 [4]: 6.48 µM |
| CC#CCOc1ccc([S+]([O-])C(C(=O)NO)c2ccc(F)cc2)cc1 (centres unmarked) [Example 96] | – | – | – | – | MMP9 ([3]; % @ 10µM per footnote a): 0%; MMP1 ([4]; % @ 10µM per footnote a): 18.40%; MMP13 [5]: 53.40% |
